Source: patent US9682983B2, “BMP inhibitors and methods of use thereof” (THE BRIGHAM AND WOMEN'S HOSPITAL, INC., priority 2013, dated 2017)

Molecular target: human ALK2 (Homo sapiens (Human), UniProt Q04771)
Assay: LANCE Ultra ULight enzymatic assay (FOP Enzymatic Assay), ALK2
Type: biochemical
Conditions: not given

human ALK2, sequence (Q04771 21-509): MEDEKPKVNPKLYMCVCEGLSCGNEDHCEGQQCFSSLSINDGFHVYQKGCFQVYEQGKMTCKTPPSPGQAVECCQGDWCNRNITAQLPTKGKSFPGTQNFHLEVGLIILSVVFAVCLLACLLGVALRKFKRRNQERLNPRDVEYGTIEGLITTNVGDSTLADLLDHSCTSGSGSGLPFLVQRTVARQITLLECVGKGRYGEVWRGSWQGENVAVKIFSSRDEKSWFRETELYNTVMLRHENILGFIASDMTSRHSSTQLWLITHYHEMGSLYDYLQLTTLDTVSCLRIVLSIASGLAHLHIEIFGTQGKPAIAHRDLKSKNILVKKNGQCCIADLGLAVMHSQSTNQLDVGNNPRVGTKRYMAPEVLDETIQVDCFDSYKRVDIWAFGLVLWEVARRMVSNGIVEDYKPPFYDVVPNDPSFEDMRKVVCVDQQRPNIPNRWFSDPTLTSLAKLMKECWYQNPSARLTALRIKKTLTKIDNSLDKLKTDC

SMILES	IC50 [nM]
[2H]c1ccc2c(-c3cnn4cc(-c5ccc(N6[C@H](C)CNC[C@@H]6C)cc5)cnc34)cccc2n1 [Compound 53, 5-(6-(4-((2R,6S)-2,6-dimethylpiperazin-1-yl)phenyl)pyrazolo[1,5-a]pyrimidin-3-yl)2-^2H-quinoline]	8

Same assay, conditions: 10 μM ATP

SMILES	IC50 [nM]
[2H]c1ccc2c(-c3cnn4cc(-c5ccc(OC(C)(C)CN6CCCCC6)cn5)cnc34)cccc2n1 [Compound 57, 5-(6-(5-((2-methyl-1-(piperidin-1-yl)propan-2-yl)oxy)pyridin-2-yl)pyrazolo[1,5-a]pyrimidin-3-yl)-2-^2H-quinoline]	28
[2H]c1ccc2c(-c3cnn4cc(-c5ccc(OC6CCN(C)CC6)cn5)cnc34)cccc2n1 [Compound 59, 5-(6-(5-((1-methylpiperidin-4-yl)oxy)pyridin-2-yl)pyrazolo[1,5-a]pyrimidin-3-yl)-2-^2H-quinoline]	43
[2H]c1ccc2c(-c3cnn4cc(-c5ccc(OC6CCNCC6)cn5)cnc34)cccc2n1 [Compound 61, 5-(6-(5-(piperidin-4-yloxy)pyridin-2-yl)pyrazolo[1,5-a]pyrimidin-3-yl)-2-^2H-quinoline]	41
[2H]c1ccc2c(-c3cnn4cc(-c5ccc(O[C@@H]6CCNC6)cn5)cnc34)cccc2n1 [Compound 63, (R)-5-(6-(5-(pyrrolidin-3-yloxy)pyridin-2-yl)pyrazolo[1,5-a]pyrimidin-3-yl)-2-^2H-quinoline]	45
[2H]c1ccc2c(-c3cnn4cc(-c5ccc(O[C@H]6CCNC6)cn5)cnc34)cccc2n1 [Compound 65, (S)-5-(6-(5-(pyrrolidin-3-yloxy)pyridin-2-yl)pyrazolo[1,5-a]pyrimidin-3-yl)-2-^2H-quinoline]	34

Same assay, conditions: read-out: ALK2 IC50 (nM) at 10 μM ATP; 10 μM ATP

SMILES	IC50 [nM]
Cc1ccc2c(-c3cnn4cc(-c5ccc(N6[C@H](C)CNC[C@@H]6C)cc5)cnc34)cccc2n1 [Compound 54, 5-(6-(4-((2R,6S)-2,6-dimethylpiperazin-1-yl)phenyl)pyrazolo[1,5-a]pyrimidin-3-yl)-2-methylquinoline]	32
Cc1ccc2c(-c3cnn4cc(-c5ccc(OCCN6CCOCC6)cn5)cnc34)cccc2n1 [Compound 56, 4-(2-((6-(3-(2-methylquinolin-5-yl)pyrazolo[1,5-a]pyrimidin-6-yl)pyridin-3-yl)oxy)ethyl)morpholine]	562
Cc1ccc2c(-c3cnn4cc(-c5ccc(OC(C)(C)CN6CCCCC6)cn5)cnc34)cccc2n1 [Compound 58, 2-methyl-5-(6-(5-((2-methyl-1-(piperidin-1-yl)propan-2-yl)oxy)pyridin-2-yl)pyrazolo[1,5-a]pyrimidin-3-yl)quinoline]	107
Cc1ccc2c(-c3cnn4cc(-c5ccc(OC6CCN(C)CC6)cn5)cnc34)cccc2n1 [Compound 60, 2-methyl-5-(6-(5-((1-methylpiperidin-4-yl)oxy)pyridin-2-yl)pyrazolo[1,5-a]pyrimidin-3-yl)quinoline]	155
Cc1ccc2c(-c3cnn4cc(-c5ccc(OC6CCNCC6)cn5)cnc34)cccc2n1 [Compound 62, 2-methyl-5-(6-(5-(piperidin-4-yloxy)pyridin-2-yl)pyrazolo[1,5-a]pyrimidin-3-yl)quinoline]	180
Cc1ccc2c(-c3cnn4cc(-c5ccc(O[C@@H]6CCNC6)cn5)cnc34)cccc2n1 [Compound 64, (R)-2-methyl-5-(6-(5-(pyrrolidin-3-yloxy)pyridin-2-yl)pyrazolo[1,5-a]pyrimidin-3-yl)quinoline]	276
Cc1ccc2c(-c3cnn4cc(-c5ccc(O[C@H]6CCNC6)cn5)cnc34)cccc2n1 [Compound 66, (S)-2-methyl-5-(6-(5-(pyrrolidin-3-yloxy)pyridin-2-yl)pyrazolo[1,5-a]pyrimidin-3-yl)quinoline]	102
COc1ccc2c(-c3cnn4cc(-c5ccc(N6[C@H](C)CNC[C@@H]6C)cc5)cnc34)cccc2n1 [Compound 67, 5-(6-(4-((2S,6R)-2,6-dimethylpiperazin-1-yl)phenyl)pyrazolo[1,5-a]pyrimidin-3-yl)-2-methoxyquinoline]	157
